Test systems include 786-0; A498; CAKI-1; CCRF-CEM; COLO 205; EKVX; HCT-116; HCT-15; HOP-62; IGROV-1; MDA-MB-435; Malme-3M; NCI/ADR-RES; OVCAR-3; OVCAR-5; OVCAR-8; SF-268; SN12C; U-251; UO-31.
Holding throughout (experiment): DTP human tumour cell line panel, 48 h

SMILES strings stand for the structures.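 Where inhibition never reached the appropriate level, the endpoint shown equals the highest concentration tested. Otherwise, values were interpolated linearly from a five-concentration, 48-hour dose response in 96-well plates. GI50 is the concentration that inhibits growth by half.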 Calls of active or inactive are those of the source. Cut-off read from the data, not from the text of the source: active = GI50 up to about 1.1 µM and inactive = higher.

Take `CC(=O)OC1CCC2(C)C(=CCC3C4CCC5(OC6CC(C)CN(C(C)=O)C6C5C)C(C)=C4C(=O)C32)C1` (stereo not given): the GI50 with 786-0 was 28.1 µM (inactive); with A498, 15.8 µM (inactive); in the assay on CAKI-1, 19.6 µM (inactive); with CCRF-CEM it was > 100 µM (inactive); with COLO 205, 14 µM (inactive); with EKVX, 7.96 µM (inactive). In addition, the GI50 with HCT-116 was 18.9 µM (inactive); with HCT-15 it was 15.7 µM; in the assay on HOP-62, 20.4 µM (inactive); in the assay on IGROV-1, 14.4 µM (inactive); in the assay on MDA-MB-435 it was 15.3 µM (inactive); with Malme-3M, 15.2 µM (inactive). Besides, the GI50 with NCI/ADR-RES is 18 µM (inactive); in the assay on OVCAR-3, 18.8 µM (inactive); with OVCAR-5, 19.2 µM (inactive); in the assay with OVCAR-8, 18.5 µM (inactive); with SF-268 it was 16 µM (inactive); in the assay with SN12C it was 21.6 µM (inactive). Besides, the GI50 with U-251 was 16.2 µM (inactive); in the assay on UO-31, 31.9 µM (inactive).

In the case of `COc1ccc2nc3cc(Cl)ccc3c(Nc3ccccc3-c3ccccc3Nc3c4ccc(Cl)cc4nc4ccc(OC)cc34)c2c1`, the GI50 in the assay with 786-0 was 26.7 µM (inactive); in the assay on A498, > 56.5 µM (inactive); in the assay with CAKI-1, 21.3 µM (inactive); in the assay on CCRF-CEM, 4.52 µM (inactive); with COLO 205, 32.6 µM (inactive); in the assay with EKVX, 52 µM (inactive). For the same compound, the GI50 was 11.7 µM (inactive) with HCT-116; 14.3 µM in the assay on HCT-15; 55.7 µM (inactive) with HOP-62; 45.7 µM (inactive) in the assay on IGROV-1; 8.32 µM (inactive) in the assay with MDA-MB-435; 35.2 µM (inactive) with Malme-3M. The GI50 in the assay with NCI/ADR-RES was 13.6 µM (inactive); in the assay on OVCAR-3 it was 45.4 µM (inactive); in the assay on OVCAR-5, 37.8 µM (inactive); in the assay with OVCAR-8 it was 28.5 µM (inactive); in the assay with SF-268, 31.9 µM (inactive); with SN12C, 32.2 µM (inactive). Besides, the GI50 in the assay with U-251 is 37.3 µM (inactive); with UO-31 it was 26.9 µM (inactive).

Consider `COC(=O)/C=C/C(=O)Nc1cc(Cl)c(Cl)cc1CC(=O)N(C)[C@H]1CCCC[C@@H]1N1CCCC1`, for which the GI50 in the assay with 786-0 was 3.83 µM (inactive); with A498, 14.4 µM (inactive); with CAKI-1, 5.37 µM (inactive); with CCRF-CEM, 2.79 µM (inactive); with COLO 205, 1.54 µM (inactive); with EKVX it was 13.1 µM (inactive). Further, the GI50 is 6.5 µM (inactive) in the assay on HCT-116; 11.4 µM in the assay on HCT-15; 16.9 µM (inactive) with HOP-62; 7.21 µM (inactive) in the assay on IGROV-1; 5.61 µM (inactive) in the assay with MDA-MB-435; 6.41 µM (inactive) in the assay with Malme-3M. Also, the GI50 is 14.7 µM (inactive) in the assay with NCI/ADR-RES; 3.27 µM (inactive) in the assay with OVCAR-3; 15.8 µM (inactive) with OVCAR-5; 5.27 µM (inactive) in the assay on OVCAR-8; 18.7 µM (inactive) with SF-268; 10.2 µM (inactive) in the assay on SN12C. In addition, the GI50 was 14.8 µM (inactive) in the assay on U-251 and 4.52 µM (inactive) with UO-31.

Consider `O=C1N[C@H]2C(=O)c3c(Br)sc(Br)c3[C@H]2O1`, for which the GI50 was 8.26 µM (inactive) with 786-0; 18.7 µM (inactive) in the assay on A498; 4.53 µM (inactive) in the assay with CAKI-1; 1.31 µM (inactive) in the assay on CCRF-CEM; 3.52 µM (inactive) with COLO 205; 5.69 µM (inactive) in the assay with EKVX. The GI50 is 2.77 µM (inactive) with HCT-116; 1.95 µM in the assay with HCT-15; 16.2 µM (inactive) in the assay with HOP-62; 11.4 µM (inactive) with IGROV-1; 3.89 µM (inactive) with MDA-MB-435; 4.75 µM (inactive) in the assay on Malme-3M. The GI50 is 13.4 µM (inactive) with NCI/ADR-RES; 3.11 µM (inactive) in the assay on OVCAR-3; 17.7 µM (inactive) in the assay on OVCAR-5; 3.82 µM (inactive) with OVCAR-8; 4.1 µM (inactive) in the assay with SF-268; 4.76 µM (inactive) in the assay with SN12C. The GI50 is 3.48 µM (inactive) in the assay with U-251 and 1.86 µM (inactive) in the assay with UO-31.

Take `CCCCCCCCCCCCCCCCCCNc1ccn(C2OC(COP(=O)(O)OCC(COP(=O)(O)OCC3OC(n4cc(C)c(=O)[nH]c4=O)CC3N=[N+]=[N-])OCCCCCCCCCCCCCCCCCC)C(O)C2O)c(=O)n1` (stereo not given): the GI50 in the assay with 786-0 was 54.1 µM (inactive); in the assay on A498, > 100 µM (inactive); with CAKI-1, > 100 µM (inactive); in the assay with CCRF-CEM, > 100 µM (inactive); with COLO 205, 54.5 µM (inactive); in the assay on EKVX, > 100 µM (inactive). Moreover, the GI50 with HCT-116 is 56.8 µM (inactive); in the assay on HCT-15 it was 34 µM; in the assay with HOP-62, > 100 µM (inactive); in the assay on IGROV-1 it was 52.2 µM (inactive); with MDA-MB-435, 87.1 µM (inactive); in the assay with Malme-3M it was 27 µM (inactive). The GI50 was > 100 µM (inactive) with NCI/ADR-RES; > 100 µM (inactive) with OVCAR-3; 76.9 µM (inactive) with OVCAR-5; 60.5 µM (inactive) with OVCAR-8; 50.6 µM (inactive) in the assay with SF-268; > 100 µM (inactive) in the assay with SN12C. The GI50 in the assay on U-251 is 12.8 µM (inactive); with UO-31 it was 17.7 µM (inactive).

What is called GI50 is the concentration giving 50% growth inhibition.

The values are drawn from ChEMBL document CHEMBL1201862, “PubChem BioAssay data set” (2004).
